Source: patent publication US11767322B2 (BRISTOL-MYERS SQUIBB COMPANY, priority 2020, dated 2023)
Like-named read-outs stand apart in the source and are kept apart here.

Assays:
[1] = system: MLKL phosphorylation in HT29-L23 human colorectal adenocarcinoma cells; test: MLKL phosphorylation high-content assay; assay type: cell-based
[2] = biological target: GST-tagged PIK3Cδ in complex with PIK3R1 (Homo sapiens, UniProt O00329); test: PI3Kδ HTRF binding assay; conditions: HTRF probe displacement, 1 h at rt; read-out: PIK3CD IC50
[3] = biological target: T1, His-GST-TVMV-hRIPK1(1-324) (Homo sapiens, UniProt Q13546); test: biochemical; assay type: binding; conditions: HTRF probe displacement, 1 h at rt; read-out: RIPK1 IC50
T1 construct: The coding region of human RIPK1(1-324) flanked by NdeI site at 5′ end; made in house; host or cells: Spodoptera frugiperda Sf9 insect cells (baculovirus, Bac-to-Bac)
T1 sequence (Q13546 1-324): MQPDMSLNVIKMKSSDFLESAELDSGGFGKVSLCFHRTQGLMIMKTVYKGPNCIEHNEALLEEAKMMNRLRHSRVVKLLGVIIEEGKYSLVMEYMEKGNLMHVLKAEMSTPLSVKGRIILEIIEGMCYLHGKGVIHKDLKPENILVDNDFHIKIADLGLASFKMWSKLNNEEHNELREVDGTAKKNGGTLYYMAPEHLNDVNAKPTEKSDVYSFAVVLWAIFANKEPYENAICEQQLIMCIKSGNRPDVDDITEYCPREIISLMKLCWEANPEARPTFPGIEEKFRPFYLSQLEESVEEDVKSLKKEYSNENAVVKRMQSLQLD

[4] = Homo sapiens, 6 h, HT29-L23 cells; necroptosis induced with TNFα, SMAC mimetic and Z-VAD, 6 h; maximal inhibition defined by Nec1s; read-out: pMLKL IC50
[5] = read-out: pMLKL IC50; HT29-L23 cells; necroptosis induced with TNFα, SMAC mimetic and Z-VAD, 6 h; maximal inhibition defined by Nec1s

Sequence of GST-tagged PIK3Cδ in complex with PIK3R1 (O00329 whole entry): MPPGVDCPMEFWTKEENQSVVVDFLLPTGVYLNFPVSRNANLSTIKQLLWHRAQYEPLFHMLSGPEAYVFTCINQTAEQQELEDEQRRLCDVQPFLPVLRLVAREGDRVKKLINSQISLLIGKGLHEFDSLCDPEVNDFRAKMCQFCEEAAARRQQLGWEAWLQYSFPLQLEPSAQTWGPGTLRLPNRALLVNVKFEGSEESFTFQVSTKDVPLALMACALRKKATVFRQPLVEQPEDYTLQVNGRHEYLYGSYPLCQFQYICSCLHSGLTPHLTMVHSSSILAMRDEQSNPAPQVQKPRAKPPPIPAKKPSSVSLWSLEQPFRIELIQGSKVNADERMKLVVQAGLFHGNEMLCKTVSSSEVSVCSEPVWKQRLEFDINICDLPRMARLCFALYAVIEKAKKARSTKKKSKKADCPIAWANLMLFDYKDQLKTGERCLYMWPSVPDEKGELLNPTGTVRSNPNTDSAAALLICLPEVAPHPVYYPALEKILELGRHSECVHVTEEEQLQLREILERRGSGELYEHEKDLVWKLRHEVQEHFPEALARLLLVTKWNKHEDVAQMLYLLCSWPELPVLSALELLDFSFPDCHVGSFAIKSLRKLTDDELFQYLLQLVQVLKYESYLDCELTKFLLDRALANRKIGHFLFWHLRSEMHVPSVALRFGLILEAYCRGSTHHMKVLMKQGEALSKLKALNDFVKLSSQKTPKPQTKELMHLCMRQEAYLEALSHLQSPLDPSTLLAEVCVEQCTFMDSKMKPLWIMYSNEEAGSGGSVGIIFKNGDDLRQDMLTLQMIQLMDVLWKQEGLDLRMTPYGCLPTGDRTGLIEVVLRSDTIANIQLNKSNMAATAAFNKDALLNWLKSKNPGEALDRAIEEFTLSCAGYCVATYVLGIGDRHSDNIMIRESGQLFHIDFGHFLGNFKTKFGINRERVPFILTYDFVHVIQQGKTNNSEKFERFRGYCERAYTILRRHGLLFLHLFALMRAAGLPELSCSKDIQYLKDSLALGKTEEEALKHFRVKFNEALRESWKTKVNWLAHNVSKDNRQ
Sequence of GST-tagged PIK3Cδ in complex with PIK3R1 (P27986 whole entry partner): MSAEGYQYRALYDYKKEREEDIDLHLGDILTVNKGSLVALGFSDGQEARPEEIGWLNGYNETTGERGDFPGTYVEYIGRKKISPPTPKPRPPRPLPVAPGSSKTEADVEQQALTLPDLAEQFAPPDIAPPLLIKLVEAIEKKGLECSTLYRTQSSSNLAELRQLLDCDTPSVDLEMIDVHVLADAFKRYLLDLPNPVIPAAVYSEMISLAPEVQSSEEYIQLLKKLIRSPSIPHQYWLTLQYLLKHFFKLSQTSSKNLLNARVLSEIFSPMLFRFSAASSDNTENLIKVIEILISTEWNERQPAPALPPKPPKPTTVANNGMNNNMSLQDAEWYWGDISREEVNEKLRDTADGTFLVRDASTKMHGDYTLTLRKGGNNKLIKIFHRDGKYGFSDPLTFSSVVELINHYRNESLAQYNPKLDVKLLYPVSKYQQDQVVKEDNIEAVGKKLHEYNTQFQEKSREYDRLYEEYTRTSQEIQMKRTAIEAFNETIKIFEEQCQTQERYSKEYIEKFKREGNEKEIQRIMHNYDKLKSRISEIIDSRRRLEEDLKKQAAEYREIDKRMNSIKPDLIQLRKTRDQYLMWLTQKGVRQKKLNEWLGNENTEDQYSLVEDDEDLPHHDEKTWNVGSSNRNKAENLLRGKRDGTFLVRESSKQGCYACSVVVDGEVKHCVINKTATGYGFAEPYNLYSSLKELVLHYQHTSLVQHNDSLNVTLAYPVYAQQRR

Compound | IC50 [2] [nM] | further results
Cc1ccc(-c2ccn3nc(N)nc3c2)c(F)c1C(=O)NCCC(O)c1cccc(F)c1 (single isomer, unassigned) [Example 63, 3-(2-amino-[1,2,4]triazolo[1,5-a]pyridin-7-yl)-2-fluoro-N-(3-(3-fluorophenyl)-3-hydroxypropyl)-6-methylbenzamide] | 13000 | IC50 [1, 4]: 1.9 nM
Cc1c(C(=O)NC(C)CC(O)c2ccc(Cl)cc2)cc(-c2ccn3nc(N)nc3c2)c(F)c1F (racemic) [Example 100, 5-(2-amino-[1,2,4]triazolo[1,5-a]pyridin-7-yl)-N-(4-(4-chlorophenyl)-4-hydroxybutan-2-yl)-3,4-difluoro-2-methylbenzamide] | > 15000 | IC50 [1, 5]: 27 nM
Cc1ccc(-c2ccn3nc(N)nc3c2)c(F)c1C(=O)NC[C@H](F)[C@@H](O)c1ccc(Cl)cc1 (single isomer, unassigned) [Example 302] | > 15000 | 
Cc1ccc(-c2ccn3nc(N)nc3c2)c(F)c1C(=O)NC(CF)CC(O)c1ccc(Cl)cc1 (single isomer, unassigned) [Example 24, 3-(2-amino-[1,2,4]triazolo[1,5-a]pyridin-7-yl)-N-(4-(4-chlorophenyl)-1-fluoro-4-hydroxybutan-2-yl)-2-fluoro-6-methylbenzamide] | > 15000 | 
Cc1cc(F)c(-c2ccn3nc(N)nc3c2)cc1C(=O)NCCC(O)c1ccc(C(F)(F)F)cc1 (single isomer, unassigned) [Example 3, 5-(2-amino-[1,2,4]triazolo[1,5-a]pyridin-7-yl)-4-fluoro-N-(3-hydroxy-3-(4-(trifluoromethyl)phenyl)propyl)-2-methylbenzamide] | > 15000 | 
Cc1ccc(-c2ccn3nc(N)nc3c2)c(F)c1C(=O)NCC(F)(F)C(O)C1CC(F)(F)C1 (stereo not drawn) [Example 259, 3-(2-amino-[1,2,4]triazolo[1,5-a]pyridin-7-yl)-N-(3-(3,3-difluorocyclobutyl)-2,2-difluoro-3-hydroxypropyl)-2-fluoro-6-methylbenzamide] | > 15000 | 
Cc1cc(Cl)c(-c2ccn3nc(N)nc3c2)cc1C(=O)NCC[C@H](O)c1ccc(Cl)cc1 [Example 144, (S)-5-(2-amino-[1,2,4]triazolo[1,5-a]pyridin-7-yl)-4-chloro-N-(3-(4-chlorophenyl)-3-hydroxypropyl)-2-methylbenzamide] | > 15000 | IC50 [1, 4]: 4.2 nM
CC(O)(CCNC(=O)c1cc(-c2ccn3nc(N)nc3c2)ccc1Cl)c1ccccc1 (stereo not drawn) [Example 93, 5-(2-amino-[1,2,4]triazolo[1,5-a]pyridin-7-yl)-2-chloro-N-(3-hydroxy-3-phenylbutyl)benzamide] | 11000 | IC50 [1, 4]: 256 nM
Nc1nc2cc(-c3c(F)ccc(C(=O)NCC[C@H](O)c4ccc(Cl)cc4)c3F)ccn2n1 [Example 219, (S)-3-(2-amino-[1,2,4]triazolo[1,5-a]pyridin-7-yl)-N-(3-(4-chlorophenyl)-3-hydroxypropyl)-2,4-difluorobenzamide] | > 15000 | IC50 [1, 4]: 42 nM
Nc1nc2cc(-c3ccc(Cl)c(C(=O)NCC[C@H](O)c4ccc(Cl)cc4)c3)ccn2n1 [Example 91, (S)-5-(2-amino-[1,2,4]triazolo[1,5-a]pyridin-7-yl)-2-chloro-N-(3-(4-chlorophenyl)-3-hydroxypropyl)benzamide] | 8000 | IC50 [1, 4]: 34 nM
Cc1ccc(-c2ccn3nc(N)nc3c2)c(F)c1C(=O)NCCC(O)c1ccc(Cl)cn1 (single isomer, unassigned) [Example 47, 3-(2-amino-[1,2,4]triazolo[1,5-a]pyridin-7-yl)-N-(3-(5-chloropyridin-2-yl)-3-hydroxypropyl)-2-fluoro-6-methylbenzamide] | > 15000 | 
Cc1cc(F)c(-c2ccn3nc(N)nc3c2)cc1C(=O)NCCC(O)c1ccc(C(F)(F)F)cc1 (racemic) [Example 2, 5-(2-amino-[1,2,4]triazolo[1,5-a]pyridin-7-yl)-4-fluoro-N-(3-hydroxy-3-(4-(trifluoromethyl)phenyl)propyl)-2-methylbenzamide] | > 15000 | 
Cc1ccc(-c2ccn3nc(N)nc3c2)c(F)c1C(=O)NCC(F)(F)C(O)C1CC(F)(F)C1 (stereo not drawn) [Example 258, 3-(2-amino-[1,2,4]triazolo[1,5-a]pyridin-7-yl)-N-(3-(3,3-difluorocyclobutyl)-2,2-difluoro-3-hydroxypropyl)-2-fluoro-6-methylbenzamide] | > 15000 | 
Cc1ccc(-c2ccn3nc(N)nc3c2)c(F)c1C(=O)NC[C@@H](F)[C@H](O)c1ccc(Cl)cc1 (single isomer, unassigned) [Example 303] | > 15000 | 
Cc1ccc(-c2ccn3nc(N)nc3c2)c(F)c1C(=O)NC(CF)CC(O)c1ccc(Cl)cc1 (single isomer, unassigned) [Example 23, 3-(2-amino-[1,2,4]triazolo[1,5-a]pyridin-7-yl)-N-(4-(4-chlorophenyl)-1-fluoro-4-hydroxybutan-2-yl)-2-fluoro-6-methylbenzamide] | > 15000 | 
Cc1ccc(-c2ccn3nc(N)nc3c2)c(F)c1C(=O)NCC(F)(F)C(O)c1ccc(Cl)c(Cl)c1 (single isomer, unassigned) [Example 113, 3-{2-amino-[1,2,4]triazolo[1,5-a]pyridin-7-yl}-N-[3-(3,4-dichlorophenyl)-2,2-difluoro-3-hydroxypropyl]-2-fluoro-6-methylbenzamide] | > 15000 | 
Cc1ccc(-c2ccn3nc(N)nc3c2)c(F)c1C(=O)NCC(F)(F)C(O)c1ccc(Cl)c(Cl)c1 (single isomer, unassigned) [Example 112, 3-{2-amino-[1,2,4]triazolo[1,5-a]pyridin-7-yl}-N-[3-(3,4-dichlorophenyl)-2,2-difluoro-3-hydroxypropyl]-2-fluoro-6-methylbenzamide] | > 15000 | 
Cc1ccc(-c2ccn3nc(N)nc3c2C)c(F)c1C(=O)NCC[C@H](O)c1ccc(Cl)cc1 (single isomer, unassigned; enantiomer 1) [Example 137] |  | IC50 ([1]; HT29-L23 cells; necroptosis induced with TNFα, SMAC mimetic and Z-VAD, 6 h; maximal inhibition defined by Nec1s; read-out: pMLKL IC50): 0.9 nM; IC50 [3]: 9.7 nM
[2H]C([2H])(CC([2H])(O)c1ccc(Cl)cc1)NC(=O)c1c(Cl)ccc(-c2ccn3nc(N)nc3c2)c1F (stereo not drawn) [Example 75, 3-(2-amino-[1,2,4]triazolo[1,5-a]pyridin-7-yl)-6-chloro-N-(3-(4-chlorophenyl)-3-hydroxypropyl-1,1,3-d3)-2-fluorobenzamide] |  | IC50 [1, 5]: 4.3 nM; IC50 [3]: 3.2 nM
Cc1cccc(C(O)C(F)(F)CNC(=O)c2c(Cl)ccc(-c3ccn4nc(N)nc4c3)c2F)c1 (stereo not drawn) [Example 174, 3-(2-amino-[1,2,4]triazolo[1,5-a]pyridin-7-yl)-6-chloro-N-(2,2-difluoro-3-hydroxy-3-(m-tolyl)propyl)-2-fluorobenzamide] |  | IC50 [1, 5]: 1.4 nM; IC50 [3]: 2.8 nM
[2H]C([2H])([2H])c1ccc(-c2ccn3nc(N)nc3c2)c(F)c1C(=O)NCC(F)(F)C(O)(c1ccc(F)cc1)C([2H])([2H])[2H] (single isomer, unassigned) [Example 244, 3-(2-amino-[1,2,4]triazolo[1,5-a]pyridin-7-yl)-N-(2,2-difluoro-3-(4-fluorophenyl)-3-hydroxybutyl-4,4,4-d3)-2-fluoro-6-(methyl-d3)benzamide] |  | IC50 [1, 5]: 1.2 nM; IC50 [3]: 2.7 nM
Cc1ccc(-c2ccn3nc(N)nc3c2)c(F)c1C(=O)NCCC(O)c1cccc(Cl)c1 (single isomer, unassigned) [Example 44, 3-(2-amino-[1,2,4]triazolo[1,5-a]pyridin-7-yl)-N-(3-(3-chlorophenyl)-3-hydroxypropyl)-2-fluoro-6-methylbenzamide] |  | IC50 [1, 5]: 2.5 nM; IC50 [3]: 1.3 nM
